Laboratory results taken from patent US20160354411A1, “OLIVAMINE-INDUCED IMPROVEMENT IN ENDOTHELIAL CELLS VIABILITY AND FUNCTION” (priority 2015, published 2016).

Tests used:
HMEC-1 cells = assay: crystal violet cell viability assay; type: cell-based, human; settings: 24 hours; HT 0-200 μM, OL 0-800 μM, Formulation 1 0-4×
Description: A crystal violet cell viability assay was performed to determine the cytotoxic effects of OLIVAMINE® (compositions of hydroxytyrosol and oleuropein) composition on HMEC-1 cells. Briefly, cells were seeded on a 24-well plate and treated for 24 h dose-titration concentrations of HT (0-200 μM), OL (0-800 μM), OLIVAMINE® (compositions of hydroxytyrosol and oleuropein) composition (McCord formulation 1, dilution factor=4×, Table 8). Following treatment, cells were washed twice with 0.9% saline and fixed with […] of 4% neutral formalin for 15-30 min. Cells were then stained with […] of 0.01% (w/v) crystal violet for 30 min, washed with dH2O and left to dry under a fume hood overnight. Cells were then lysed with […] of lysis buffer for 15 min on a rotating platform and the absorbance of each well was measured at the 560 nm wavelength using a microplate spectrophotometer.
To determine whether olive phenols influence cell proliferation, a crystal violet cell viability analysis was conducted. The relative cell viability of HMEC-1 cells was investigated. Cells were incubated with varying concentrations of HT (0-200 μM), OL (0-800 μM) and Formulation 1 (Table 8, 0-4×) 24 hours.

[1] = tested on: human microvascular endothelial cells; assay: in vitro model of wound healing, time for 50% wound to heal; type: cell-based
From the text: The time for wounds to heal by 50% under the various treatment conditions was quantified.

[2] = tested on: human umbilical vein endothelial cells (HUVEC); assay: HUVEC cell migration / wound gap closure with or without 30 mM glucose pre-treatment; type: cell-based; settings: for Time for 50% wound to heal: 24 hours incubation before wounding; for Healing Improvement (%): compared to untreated cells
Description: Additional wound studies were conducted using umbilical cord stem cells in addition to the use of hydroxytyrosol compositions and commercially-available OLIVAMINE® (compositions of hydroxytyrosol and oleuropein) compositions (20 μM hydroxytyrosol, 80 μM oleuropein, 2 mM N-acetylcysteine, 50 μM L-proline, 2 mM glycine and 100 μM taurine). These were evaluated with human umbilical vein endothelial cells (HUVEC) to assess impact on cell migration and wound healing.
HUVEC cells. Human umbilical vein endothelial cells are derived from the endothelium of veins from the umbilical cord (HUVEC primary cells purchased from Lonza). HUVECs have been widely used as a model system for the study of the regulation of endothelial cell function and the role of the endothelium in response of the blood vessel wall to stretch, shear forces and the development of atherosclerotic plaques and angiogenesis. For the following study, HUVECs are a primary endothelial cell line as a model system for the function and pathology of endothelial cells. We investigated improvement in cell proliferation and migration following treatment with OLIVAMINE® (compositions of hydroxytyrosol and oleuropein) composition.
In this study, HUVEC cells were pre-treated with or without 30 mM glucose for 3 days (72 hours). The cells were then equilibrated for a day (24 hours), and incubated with 50 μM hydroxytyrosol or OLIVAMINE® (compositions of hydroxytyrosol and oleuropein) formulation (20 μM hydroxytyrosol, 80 μM oleuropein, 2 mM N-acetylcysteine, 50 μM L-proline, 2 mM glycine and 100 μM taurine) for 24 hours before wounding.
Images were taken at intervals and the wound gap was quantified over time using IMAGE® analysis software. […] The distances measured are depicted in the Figures by the horizontal solid lines indicating the distance between the gaps of the wound. 100 measurements were taken per image and a mean gap distance was determined. As shown in FIGS. 7-8 the initial wound and 24 hour measurement are shown by the images, under both control (FIG. 7A) and high glucose (FIG. 8A). In addition the reduction in percentage of open wound is further shown graphically for the control (FIG. 7B) and high glucose (FIG. 8B) conditions. The time for 50% of the wound to heal was quantified as well as the percentage of improvement compared to untreated cells.

proliferative cells = assay: induction or maintenance of a quiescent cell state; type: cell-based; settings: evidence obtained to-date
Description: More specifically, when present at a concentration above a threshold level, hydroxytyrosol can induce proliferative cells into a quiescent state and help maintain cells in a pre-existing quiescent state. Based upon evidence obtained to-date, the threshold concentration is about 10 μM hydroxytyrosol.

[3] = Table 9, single ingredients, Present Art and Present Art without one ingredient

| SMILES | effect on cell proliferation / viability (HMEC-1 cells) | Time for 50% wound to heal ([1]; Table 1) | Time for 50% wound to heal [1, 3] | other results |
| --- | --- | --- | --- | --- |
| C/C=C1/[C@H](O[C@@H]2O[C@H](CO)[C@@H](O)[C@H](O)[C@H]2O)OC=C(C(=O)OC)[C@H]1CC(=O)OCCc1ccc(O)c(O)c1 [Oleuropein] | no significantly effects on cell proliferation | 25.62 h | 25.62 h |  |
| OCCc1ccc(O)c(O)c1 [Hydroxytyrosol] | no significantly effects on cell proliferation | 19.25 h | 19.25 h | Time for 50% wound to heal ([2]; High Glucose (30 mM, 72 hours)): 15.2 h; Healing Improvement (%) ([2]; High Glucose): 30%; Time for 50% wound to heal ([2]; no glucose pre-treatment): 19.7 h; Healing Improvement (%) ([2]; no glucose pre-treatment): 10%; threshold concentration for inducing or maintaining quiescence (proliferative cells): about 10 μM; less effective than the present art combination ([1]; hydroxytyrosol alone): 30% |
| O=C(O)[C@@H]1CCCN1 [L-proline] |  |  | 23.24 h |  |
| NCC(=O)O [Glycine] |  |  | 20.73 h |  |
| NCCS(=O)(=O)O [L-Taurine] |  |  | 22.5 h |  |
| CC(=O)N[C@@H](CS)C(=O)O [N-acetylcysteine, N-acetyl-L-cysteine, reference compound] |  | 28.87 h | 28.87 h | effect on time and extent of wound healing (in words) ([1]; compared to untreated or to single ingredients, absence and presence of glucose): increased the time to 50% healing compared to untreated |
